We go through one compound from article PMC10970486 (Bioconjugate chemistry, 2024).

The target of this experiment is MelBSt (melibiose permease) (Salmonella enterica, UniProt P30878). The experiment is described as follows: displacement of D2G, Trp to dansyl FRET. The class given is binding. The settings on record: excess melibiose added after D2G; extract in DDM, TMG-A13 or TMG-P10,8.
Chain of MelBSt (melibiose permease) (P30878 whole entry): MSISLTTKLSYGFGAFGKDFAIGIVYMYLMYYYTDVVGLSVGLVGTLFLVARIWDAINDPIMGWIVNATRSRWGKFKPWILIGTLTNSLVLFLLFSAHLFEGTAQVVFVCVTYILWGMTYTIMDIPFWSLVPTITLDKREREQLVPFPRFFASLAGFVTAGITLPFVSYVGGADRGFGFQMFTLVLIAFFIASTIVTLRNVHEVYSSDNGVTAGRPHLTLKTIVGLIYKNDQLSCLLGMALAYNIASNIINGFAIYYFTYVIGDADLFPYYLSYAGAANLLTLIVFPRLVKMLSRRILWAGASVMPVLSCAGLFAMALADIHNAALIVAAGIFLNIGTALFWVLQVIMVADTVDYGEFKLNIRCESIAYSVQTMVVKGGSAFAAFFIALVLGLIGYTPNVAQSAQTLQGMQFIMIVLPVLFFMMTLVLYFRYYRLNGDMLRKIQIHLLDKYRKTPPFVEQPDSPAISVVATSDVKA

As for `OC[C@H]1O[C@H](OC[C@H]2OC(O)[C@H](O)[C@@H](O)[C@@H]2O)[C@H](O)[C@@H](O)[C@H]1O` (stereo partly shown) [melibiose], the “displacement of D2G, Trp to dansyl FRET” value is listed as “excess melibiose replaces the dansyl ligand with the non-fluorescent substrate in the active site”.
